From ChEMBL document CHEMBL5113521, “Discovery of a Novel Oral Proteasome Inhibitor to Block NLRP3 Inflammasome Activation with Anti-inflammation Activity” (J Med Chem, 2022)
Calls of active or inactive are those of the source. The calls are words filed in the database; no cut-off is given here.

What was measured:
[1] = biological target: NACHT, LRR and PYD domains-containing protein 3 (Mus musculus) (UniProt Q8R4B8); experiment: Inhibition of NLRP3 inflammasome activation in LPS-primed mouse J774.A1 cells assessed as reduction in IL-1beta secretion preincubated for 1 hr followed by nigericin stimulation and measured after 1 hr by ELISA; type: cell-based; details: time 2.0 hrs, DDE = dose-dependent effect
Chain of NACHT, LRR and PYD domains-containing protein 3 (Mus musculus) (Q8R4B8 whole entry, the tested form may be a part): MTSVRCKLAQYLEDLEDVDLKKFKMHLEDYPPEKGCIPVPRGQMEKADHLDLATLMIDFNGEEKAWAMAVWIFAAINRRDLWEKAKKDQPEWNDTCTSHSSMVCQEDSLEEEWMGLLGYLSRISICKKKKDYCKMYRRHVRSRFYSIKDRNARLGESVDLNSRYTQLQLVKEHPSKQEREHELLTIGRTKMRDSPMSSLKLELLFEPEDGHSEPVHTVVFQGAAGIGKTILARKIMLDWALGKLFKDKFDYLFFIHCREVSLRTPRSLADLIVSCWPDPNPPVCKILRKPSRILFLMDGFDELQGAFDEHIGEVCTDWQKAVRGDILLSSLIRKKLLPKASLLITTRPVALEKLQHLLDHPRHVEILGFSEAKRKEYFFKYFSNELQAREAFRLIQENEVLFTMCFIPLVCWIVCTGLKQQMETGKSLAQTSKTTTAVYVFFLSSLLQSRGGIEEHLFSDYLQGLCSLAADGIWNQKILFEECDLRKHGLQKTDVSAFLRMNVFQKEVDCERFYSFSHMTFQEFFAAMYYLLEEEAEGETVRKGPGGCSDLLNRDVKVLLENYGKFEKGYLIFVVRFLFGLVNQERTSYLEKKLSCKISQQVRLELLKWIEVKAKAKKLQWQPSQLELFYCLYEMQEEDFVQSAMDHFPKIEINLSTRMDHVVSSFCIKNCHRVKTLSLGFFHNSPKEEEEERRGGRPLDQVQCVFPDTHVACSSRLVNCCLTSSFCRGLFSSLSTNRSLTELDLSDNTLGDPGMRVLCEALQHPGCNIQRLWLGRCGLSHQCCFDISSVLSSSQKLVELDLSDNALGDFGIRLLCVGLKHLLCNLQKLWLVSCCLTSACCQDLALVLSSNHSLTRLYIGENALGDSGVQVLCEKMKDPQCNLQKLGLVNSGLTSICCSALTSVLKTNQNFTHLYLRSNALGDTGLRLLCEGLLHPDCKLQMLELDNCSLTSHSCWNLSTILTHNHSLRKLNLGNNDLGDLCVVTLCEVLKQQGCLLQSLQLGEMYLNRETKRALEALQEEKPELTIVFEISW

Mus musculus [2] = experiment: Protection against DSS-induced acute colitis in C57BL/6 mouse model assessed as improvement in inflammatory cell infiltration at 0.125 to 0.5 mg/kg, po administered for 10 days by Hematoxylin and eosin staining based analysis; type: functional, organism-based; details: dose 0.125-0.5 mg/kg, time 10.0 day
[3] = AUC (0 to infinity) in Sprague-Dawley rat at 1 mg/kg, po measured upto 24 hrs by liquid chromatography tandem mass spectrometry; type: ADME, organism-based; set-up: dose 1 mg/kg, time < 24 hrs, route po; details: in vivo
[4] = biological target: NACHT, LRR and PYD domains-containing protein 3 (Mus musculus) (UniProt Q8R4B8); experiment: Inhibition of NLRP3 inflammasome activation in LPS-stimulated mouse J774.A1 cells assessed as increase in Cbl-b expression at 30 to 100 nM preincubated for 1 hr followed by nigericin stimulation measured after 1 hr by immunoblot analysis; type: cell-based; details: dose 30-100 nM, time 2.0 hrs
Mus musculus [5] = experiment: Anti-colitis activity against DSS-induced C57BL/6 mouse model assessed as suppression of DSS induced fecal occult blood at 0.125 to 0.5 mg/kg, po administered every 72 hrs for 10 days; type: functional, organism-based; details: dose 0.125-0.5 mg/kg, time 10.0 day
[6] = biological target: NACHT, LRR and PYD domains-containing protein 3 (Mus musculus) (UniProt Q8R4B8); experiment: Inhibition of NLRP3 inflammasome activation in LPS-stimulated mouse J774.A1 cells assessed as increase in c-Cbl expression at 7.5 to 60 nM preincubated for 1 hr followed by nigericin stimulation measured after 1 hr by immunoblot analysis; type: cell-based; details: dose 7.5-60 nM, time 2.0 hrs
[7] = biological target: NACHT, LRR and PYD domains-containing protein 3 (Mus musculus) (UniProt Q8R4B8); experiment: Inhibition of NLRP3 inflammasome activation in LPS-stimulated mouse J774.A1 cells assessed as increase in polyubiquitinated NLRP3 preincubated for 1 hr followed by nigericin stimulation measured after 1 hr by immunoblot analysis; type: cell-based; details: dose 7.5-60 nM, time 2.0 hrs, DDE = dose-dependent effect
[8] = AUC (0 to infinity) in Sprague-Dawley rat at 0.5 mg/kg, iv measured upto 24 hrs by liquid chromatography tandem mass spectrometry; type: ADME, organism-based; set-up: time < 24 hrs, dose 0.5 mg/kg, route iv; details: in vivo
Mus musculus [9] = experiment: Protection against DSS-induced acute colitis in C57BL/6 mouse model assessed as improvement in goblet cell depletion at 0.125 to 0.5 mg/kg, po administered for 10 days by Hematoxylin and eosin staining based analysis; type: functional, organism-based; details: dose 0.125-0.5 mg/kg, time 10.0 day
[10] = biological target: NACHT, LRR and PYD domains-containing protein 3 (Mus musculus) (UniProt Q8R4B8); experiment: Inhibition of NLRP3 inflammasome activation in LPS-primed mouse J774.A1 cells assessed as inhibition of release of IL-1 beta preincubated for 1 hr followed by nigericin stimulation and measured after 1 hr by ELISA; type: cell-based; details: dose 7.5-60 nM, time 2.0 hrs, DDE = dose-dependent effect
Mus musculus [11] = organism: Mus musculus; experiment: Protection against DSS-induced C57BL/6 mouse ulcerative colitis model assessed as reduction in IL-1 beta in colon homogenate by ELISA; type: functional, organism-based; details: dose 0.125-0.5 mg/kg, route po, DDE = dose-dependent effect
[12] = Clearance in Sprague-Dawley rat at 0.5 mg/kg, iv measured upto 24 hrs by liquid chromatography tandem mass spectrometry; type: ADME, organism-based; details: in vivo
Mus musculus [13] = experiment: Protection against DSS-induced C57BL/6 mouse ulcerative colitis model assessed as reduction in NLRP3 level in colon at 0.125 to 0.5 mg/kg, po by Western blot analysis; type: functional, organism-based; details: dose 0.125-0.5 mg/kg
[14] = biological target: T1, Interferon-inducible protein AIM2 (Mus musculus) (UniProt Q91VJ1); experiment: Inhibition of AIM2 inflammasome activation in LPS-primed mouse BMDM cells assessed as reduction in IL-1beta secretion at 7.5 to 60 nM preincubated for 1 hr followed by poly (dA/dT) stimulation by ELISA; type: cell-based; details: dose 7.5-60 nM
T1 sequence (whole entry): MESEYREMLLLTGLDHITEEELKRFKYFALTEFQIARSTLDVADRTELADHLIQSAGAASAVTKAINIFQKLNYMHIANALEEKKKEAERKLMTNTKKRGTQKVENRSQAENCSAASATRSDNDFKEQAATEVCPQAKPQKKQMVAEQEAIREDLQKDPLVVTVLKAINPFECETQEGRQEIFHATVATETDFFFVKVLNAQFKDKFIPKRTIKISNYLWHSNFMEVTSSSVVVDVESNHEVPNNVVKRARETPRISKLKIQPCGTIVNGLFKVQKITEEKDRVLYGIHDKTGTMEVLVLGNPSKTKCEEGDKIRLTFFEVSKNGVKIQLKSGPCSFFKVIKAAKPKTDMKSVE

[15] = Apparent volume of distribution in Sprague-Dawley rat at 0.5 mg/kg, iv measured upto 24 hrs by liquid chromatography tandem mass spectrometry; type: ADME, organism-based; details: in vivo, read-out: Vz
HEK293 = experiment: Cytotoxicity against HEK293 cells at less than 20 uM incubated for 24 hrs; type: toxicity, cell-based; details: human, hek293, 24 h
J774.A1 [16] = experiment: Inhibition of NF-kappaB in LPS treated mouse J774.A1 cells assessed as reduction in TNFalpha level at 7.5 to 60 nM incubated for 1 hr followed by LPS stimulation measured after 5 hrs by Western blot analysis; type: cell-based; details: dose 7.5-60 nM, time 6.0 hrs
[17] = MRT (0 to infinity) in Sprague-Dawley rat at 0.5 mg/kg, iv measured upto 24 hrs by liquid chromatography tandem mass spectrometry; type: ADME, organism-based; details: in vivo
[18] = Tmax in Sprague-Dawley rat at 0.5 mg/kg, iv measured upto 24 hrs by liquid chromatography tandem mass spectrometry; type: ADME, organism-based; details: in vivo
Mus musculus [19] = experiment: Anti-colitis activity against DSS-induced ulcerative colitis C57BL/6J mouse model assessed as suppression of DSS induced weight loss at 0.125 to 0.5 mg/kg, po administered every 72 hrs for 10 days; type: functional, organism-based; details: dose 0.125-0.5 mg/kg, time 10.0 day
J774.A1 [20] = experiment: Inhibition of NF-kappaB in LPS treated mouse J774.A1 cells assessed as reduction in NLRP3 level at 60 nM incubated for 1 hr followed by LPS stimulation measured after 5 hrs by Western blot analysis; type: cell-based; details: time 6.0 hrs
[21] = biological target: NLR family CARD domain-containing protein 4 (Mus musculus) (UniProt Q3UP24); experiment: Inhibition of NLRC4 inflammasome activation in LPS-primed mouse BMDM cells assessed as reduction in IL-1beta secretion at 7.5 to 60 nM preincubated for 1 hr followed by FLA-ST Ultrapure stimulation by ELISA; type: cell-based; details: dose 7.5-60 nM
Chain of NLR family CARD domain-containing protein 4 (Mus musculus) (Q3UP24 whole entry, the tested form may be a part): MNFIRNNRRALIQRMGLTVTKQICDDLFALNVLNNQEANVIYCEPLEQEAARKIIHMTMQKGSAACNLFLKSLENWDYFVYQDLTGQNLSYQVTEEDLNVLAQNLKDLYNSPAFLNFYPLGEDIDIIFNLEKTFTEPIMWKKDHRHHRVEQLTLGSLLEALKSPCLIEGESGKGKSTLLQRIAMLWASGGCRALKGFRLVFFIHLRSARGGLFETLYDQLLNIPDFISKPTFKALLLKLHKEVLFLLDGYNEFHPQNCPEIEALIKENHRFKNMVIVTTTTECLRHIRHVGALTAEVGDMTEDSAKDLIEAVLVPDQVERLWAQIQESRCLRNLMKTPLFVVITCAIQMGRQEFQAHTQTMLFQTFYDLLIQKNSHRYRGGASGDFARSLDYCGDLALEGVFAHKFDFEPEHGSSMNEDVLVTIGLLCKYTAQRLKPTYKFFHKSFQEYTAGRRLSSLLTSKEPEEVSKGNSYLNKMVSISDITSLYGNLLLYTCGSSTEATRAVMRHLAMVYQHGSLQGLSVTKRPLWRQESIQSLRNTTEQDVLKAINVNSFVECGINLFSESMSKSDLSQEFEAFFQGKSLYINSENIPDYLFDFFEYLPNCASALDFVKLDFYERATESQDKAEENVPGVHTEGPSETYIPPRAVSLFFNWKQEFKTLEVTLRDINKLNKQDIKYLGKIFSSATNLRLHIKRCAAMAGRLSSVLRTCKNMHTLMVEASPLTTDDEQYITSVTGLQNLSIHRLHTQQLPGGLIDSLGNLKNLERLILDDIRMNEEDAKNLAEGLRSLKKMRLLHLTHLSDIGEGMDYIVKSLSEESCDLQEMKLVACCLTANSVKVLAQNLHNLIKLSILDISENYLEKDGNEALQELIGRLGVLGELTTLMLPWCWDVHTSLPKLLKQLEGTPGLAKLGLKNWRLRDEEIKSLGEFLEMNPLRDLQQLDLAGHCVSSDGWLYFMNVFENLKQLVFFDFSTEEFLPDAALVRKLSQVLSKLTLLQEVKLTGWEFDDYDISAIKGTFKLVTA

[22] = Half life in Sprague-Dawley rat at 0.5 mg/kg, iv measured upto 24 hrs by liquid chromatography tandem mass spectrometry; type: ADME, organism-based; details: in vivo
[23] = biological target: T2, Apoptosis-associated speck-like protein containing a CARD (Mus musculus) (UniProt Q9EPB4); experiment: Inhibition of ASC oligomerization in LPS stimulated mouse J774A.1 cells preincubated for 1 hr followed by nigericin stimulation by immunoblot analysis; type: cell-based; details: J774.A1, dose 15-60 nM, DDE = dose-dependent effect
T2 sequence (whole entry): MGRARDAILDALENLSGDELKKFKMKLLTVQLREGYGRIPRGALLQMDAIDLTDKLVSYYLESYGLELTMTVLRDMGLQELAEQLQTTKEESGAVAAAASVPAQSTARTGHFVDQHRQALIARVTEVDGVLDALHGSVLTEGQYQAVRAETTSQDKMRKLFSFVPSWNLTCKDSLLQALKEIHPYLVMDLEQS

## CC(C)C[C@H](NC(=O)[C@H](Cc1ccccc1)NC(=O)c1c(F)cccc1F)B(O)O
[1]
  inhibition: Dde
Mus musculus [2]
  Activity: Active
[3]
  AUC: 489.2 ng·h/mL
[4]
  Activity: Active
Mus musculus [5]
  Activity: Active
[6]
  Activity: Active
[7]
  Activity: Dde
[8]
  AUC: 448.8 ng·h/mL
Mus musculus [9]
  Activity: Active
[10]
  inhibition: Dde
Mus musculus [11]
  Activity: Dde
[12]
  clearance: 18.8 mL/min/kg
Mus musculus [13]
  Activity: Active
[14]
  inhibition: Active
[15]
  Vd: 7.7 L/kg
HEK293
  Activity: Non-Toxic
J774.A1 [16]
  inhibition: Active
[17]
  MRT inf: 6.14 h
[18]
  Tmax: 4.8 min
Mus musculus [19]
  Activity: Active
J774.A1 [20]
  inhibition: Active
[21]
  inhibition: Active
[22]
  t1/2: 4.73 h
[23]
  inhibition: Dde
